Assays:
Assay type in all cases: in vivo
[1] = test system: Surinam grass (Brachiaria decumbens); assay: Test B postemergence; details: 13 to 15 days
How it was run: (§1)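 Preemergence: seeds planted and treated with test chemicals in non-phytotoxic solvent with surfactant; postemergence on plants 2–18 cm (1- to 4-leaf stage). Kept in greenhouse 13–15 days, then visually rated against controls on a 0 (no effect) to 100 (complete control) scale.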

[2] = test system: barnyardgrass (Echinochloa crus-galli); assay: Test B postemergence; details: 13 to 15 days
How it was run: as §1

[3] = test system: blackgrass (Alopecurus myosuroides); assay: Test B postemergence; details: 13 to 15 days
How it was run: as §1

[4] = test system: cocklebur (Xanthium strumarium); assay: Test B postemergence; details: 13 to 15 days
How it was run: as §1

corn (Zea mays) [5] = assay: Test B postemergence; details: 13 to 15 days
How it was run: as §1

[6] = test system: crabgrass (Digitaria sanguinalis); assay: Test B postemergence; details: 13 to 15 days
How it was run: as §1

[7] = test system: giant foxtail (Setaria faberii); assay: Test B postemergence; details: 13 to 15 days
How it was run: as §1

[8] = test system: lambsquarters (Chenopodium album); assay: Test B postemergence; details: 13 to 15 days
How it was run: as §1

[9] = test system: morning glory (Ipomoea hederacea); assay: Test B postemergence; details: 13 to 15 days
How it was run: as §1

[10] = test system: pigweed (Amaranthus retroflexus); assay: Test B postemergence; details: 13 to 15 days
How it was run: as §1

[11] = test system: velvetleaf (Abutilon theophrasti); assay: Test B postemergence; details: 13 to 15 days
How it was run: as §1

[12] = test system: wheat (Triticum aestivum); assay: Test B postemergence; details: 13 to 15 days
How it was run: as §1

wild oat (Avena fatua) = assay: Test B postemergence; details: 13 to 15 days
How it was run: as §1

[13] = test system: Surinam grass (Brachiaria decumbens); assay: Test B preemergence
How it was run: as §1

[14] = test system: barnyardgrass (Echinochloa crus-galli); assay: Test B preemergence
How it was run: as §1

[15] = test system: cocklebur (Xanthium strumarium); assay: Test B preemergence
How it was run: as §1

corn (Zea mays) [16] = assay: Test B preemergence
How it was run: as §1

[17] = test system: crabgrass (Digitaria sanguinalis); assay: Test B preemergence
How it was run: as §1

[18] = test system: giant foxtail (Setaria faberii); assay: Test B preemergence
How it was run: as §1

[19] = test system: lambsquarters (Chenopodium album); assay: Test B preemergence
How it was run: as §1

[20] = test system: morning glory (Ipomoea hederacea); assay: Test B preemergence
How it was run: as §1

[21] = test system: pigweed (Amaranthus retroflexus); assay: Test B preemergence
How it was run: as §1

rice (Oryza saliva) [22] = assay: Test B preemergence
How it was run: as §1

[23] = test system: velvetleaf (Abutilon theophrasti); assay: Test B preemergence
How it was run: as §1

[24] = test system: barnyardgrass (Echinochloa crus-galli); assay: Test B flooded paddy test; details: Rate 1000 g/ha, scale of 0 to 100 where 0 is no effect and 100 is complete control, visually evaluated after 13 to 15 days
How it was run: (§2)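 Rice, smallflower flatsedge, duck salad and barnyardgrass grown to 2-leaf stage in flooded paddy and treated with test chemicals. Plants kept in greenhouse 13 to 15 days, then visually rated against controls. Scale 0 (no effect) to 100 (complete control).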

[25] = test system: duck salad (Heteranthera limosa); assay: Test B flooded paddy test; details: Rate 1000 g/ha, scale of 0 to 100 where 0 is no effect and 100 is complete control, visually evaluated after 13 to 15 days
How it was run: as §2

rice (Oryza saliva) [26] = assay: Test B flooded paddy test; details: Rate 1000 g/ha, scale of 0 to 100 where 0 is no effect and 100 is complete control, visually evaluated after 13 to 15 days
How it was run: as §2

[27] = test system: smallflower flatsedge (Cyperus difformis); assay: Test B flooded paddy test; details: Rate 1000 g/ha, scale of 0 to 100 where 0 is no effect and 100 is complete control, visually evaluated after 13 to 15 days
How it was run: as §2

[28] = test system: barnyardgrass (Echinochloa crus-galli); assay: Test C flooded paddy test; details: for Barnyardgrass plant response rating: Flooded Paddy, scale 0 to 100, 0 no effect, 100 complete control; for Plant response rating, Barnyardgrass: flooded paddy test, scale 0 to 100 (0 no effect, 100 complete control)
How it was run: (§3)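 Greenhouse-maintained for 12 to 14 days after treatment, the paddy plants (2-leaf stage at application) were scored visually against controls. A score of 0 denotes no effect and a score of 100 denotes complete control.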

[29] = test system: duck salad (Heteranthera limosa); assay: Test C flooded paddy test; details: for Ducksalad plant response rating: Flooded Paddy, scale 0 to 100, 0 no effect, 100 complete control; for Plant response rating, Ducksalad: flooded paddy test, scale 0 to 100 (0 no effect, 100 complete control)
How it was run: as §3

rice (Oryza saliva) [30] = assay: Test C flooded paddy test; details: for Rice plant response rating: Flooded Paddy, scale 0 to 100, 0 no effect, 100 complete control; for Plant response rating, Rice: flooded paddy test, scale 0 to 100 (0 no effect, 100 complete control)
How it was run: as §3

[31] = test system: smallflower flatsedge (Cyperus difformis); assay: Test C flooded paddy test; details: for Flatsedge plant response rating: Flooded Paddy, scale 0 to 100, 0 no effect, 100 complete control; for Plant response rating, Flatsedge: flooded paddy test, scale 0 to 100 (0 no effect, 100 complete control)
How it was run: as §3

[32] = Rate 125 g/ha, scale 0 (no effect) to 100 (complete control)
[33] = Rate 500 g/ha, scale 0 to 100, 0 is no effect, 100 is complete control
[34] = Preemergence, Rate 500 g/ha, scale 0 to 100, 0 no effect, 100 complete control
[35] = preemergence, Rate 125 g/ha, scale of 0 to 100 where 0 is no effect and 100 is complete control, 13 to 15 days

CC(C)Oc1ccn(C2CCN(c3cccc(C(F)(F)F)c3)C2=O)n1 (centres unmarked) [Compound 59]
Plant response rating, Surinam grass [1, 32]: 0
Plant response rating, Surinam grass [1, 33]: 0
Plant response rating, Barnyardgrass [2, 32]: 0
Plant response rating, Barnyardgrass [2, 33]: 0
Plant response rating, Blackgrass [3, 32]: 0
Plant response rating, Blackgrass [3, 33]: 0
Plant response rating, Cocklebur [4, 32]: 0
Plant response rating, Cocklebur [4, 33]: 0
Plant response rating, Corn (corn (Zea mays) [5]; [32]): 0
Plant response rating, Corn (corn (Zea mays) [5]; [33]): 0
Plant response rating, Crabgrass [6, 32]: 0
Plant response rating, Crabgrass [6, 33]: 0
Plant response rating, Foxtail, Giant [7, 32]: 0
Plant response rating, Foxtail, Giant [7, 33]: 0
Plant response rating, Lambsquarters [8, 32]: 0
Plant response rating, Lambsquarters [8, 33]: 0
Plant response rating, Morningglory [9, 32]: 0
Plant response rating, Morningglory [9, 33]: 0
Plant response rating, Pigweed [10, 32]: 0
Plant response rating, Pigweed [10, 33]: 0
Plant response rating, Velvetleaf [11, 32]: 0
Plant response rating, Velvetleaf [11, 33]: 0
Plant response rating, Wheat [12, 32]: 0
Plant response rating, Wheat [12, 33]: 0
Plant response rating, Wild Oat (wild oat (Avena fatua); [32]): 0
Plant response rating, Wild Oat (wild oat (Avena fatua); [33]): 0
Plant response rating, Surinam grass [13, 34]: 80
Plant response rating, Surinam grass [13, 35]: 60
Plant response rating, Barnyardgrass [14, 34]: 90
Plant response rating, Barnyardgrass [14, 35]: 0
Plant response rating, Cocklebur [15, 34]: 0
Plant response rating, Cocklebur [15, 35]: 0
Plant response rating, Corn (corn (Zea mays) [16]; [34]): 0
Plant response rating, Corn (corn (Zea mays) [16]; [35]): 0
Plant response rating, Crabgrass [17, 34]: 90
Plant response rating, Crabgrass [17, 35]: 20
Plant response rating, Foxtail, Giant [18, 34]: 70
Plant response rating, Foxtail, Giant [18, 35]: 0
Plant response rating, Lambsquarters [19, 34]: 100
Plant response rating, Lambsquarters [19, 35]: 0
Plant response rating, Morningglory [20, 34]: 0
Plant response rating, Morningglory [20, 35]: 0
Plant response rating, Pigweed [21, 34]: 0
Plant response rating, Pigweed [21, 35]: 0
Plant response rating, Rice (rice (Oryza saliva) [22]; [34]): 50
Plant response rating, Rice (rice (Oryza saliva) [22]; [35]): 0
Plant response rating, Velvetleaf [23, 34]: 0
Plant response rating, Velvetleaf [23, 35]: 0
Plant response rating, Barnyardgrass [24]: 100
Plant response rating, Ducksalad [25]: 70
Plant response rating, Rice (rice (Oryza saliva) [26]): 20
Plant response rating, Flatsedge [27]: 90
Barnyardgrass plant response rating ([28]; Rate 250 g/ha): 0
Barnyardgrass plant response rating ([28]; Rate 500 g/ha): 30
Plant response rating, Barnyardgrass ([28]; Rate 62 g/ha): 0
Plant response rating, Barnyardgrass ([28]; Rate 125 g/ha): 0
Ducksalad plant response rating ([29]; Rate 250 g/ha): 0
Ducksalad plant response rating ([29]; Rate 500 g/ha): 0
Plant response rating, Ducksalad ([29]; Rate 62 g/ha): 0
Plant response rating, Ducksalad ([29]; Rate 125 g/ha): 0
Rice plant response rating (rice (Oryza saliva) [30]; Rate 250 g/ha): 0
Rice plant response rating (rice (Oryza saliva) [30]; Rate 500 g/ha): 20
Plant response rating, Rice (rice (Oryza saliva) [30]; Rate 62 g/ha): 0
Plant response rating, Rice (rice (Oryza saliva) [30]; Rate 125 g/ha): 0
Flatsedge plant response rating ([31]; Rate 250 g/ha): 0
Flatsedge plant response rating ([31]; Rate 500 g/ha): 30
Plant response rating, Flatsedge ([31]; Rate 62 g/ha): 0
Plant response rating, Flatsedge ([31]; Rate 125 g/ha): 0

CC(C)(C)c1ccn(C2CCN(c3cc(Cl)cc(Cl)c3)C2=O)n1 (centres unmarked) [Compound 55]
Plant response rating, Surinam grass [1, 32]: 0
Plant response rating, Surinam grass [1, 33]: 0
Plant response rating, Barnyardgrass [2, 32]: 0
Plant response rating, Barnyardgrass [2, 33]: 0
Plant response rating, Blackgrass [3, 32]: 0
Plant response rating, Blackgrass [3, 33]: 0
Plant response rating, Cocklebur [4, 32]: 10
Plant response rating, Cocklebur [4, 33]: 10
Plant response rating, Corn (corn (Zea mays) [5]; [32]): 0
Plant response rating, Corn (corn (Zea mays) [5]; [33]): 0
Plant response rating, Crabgrass [6, 32]: 0
Plant response rating, Crabgrass [6, 33]: 0
Plant response rating, Foxtail, Giant [7, 32]: 0
Plant response rating, Foxtail, Giant [7, 33]: 0
Plant response rating, Lambsquarters [8, 32]: 0
Plant response rating, Lambsquarters [8, 33]: 0
Plant response rating, Morningglory [9, 32]: 0
Plant response rating, Morningglory [9, 33]: 30
Plant response rating, Pigweed [10, 32]: 0
Plant response rating, Pigweed [10, 33]: 0
Plant response rating, Velvetleaf [11, 32]: 0
Plant response rating, Velvetleaf [11, 33]: 0
Plant response rating, Wheat [12, 32]: 0
Plant response rating, Wheat [12, 33]: 0
Plant response rating, Wild Oat (wild oat (Avena fatua); [32]): 0
Plant response rating, Wild Oat (wild oat (Avena fatua); [33]): 0
Plant response rating, Surinam grass [13, 34]: 0
Plant response rating, Surinam grass [13, 35]: 0
Plant response rating, Barnyardgrass [14, 34]: 0
Plant response rating, Barnyardgrass [14, 35]: 0
Plant response rating, Cocklebur [15, 35]: 0
Plant response rating, Corn (corn (Zea mays) [16]; [34]): 0
Plant response rating, Corn (corn (Zea mays) [16]; [35]): 0
Plant response rating, Crabgrass [17, 34]: 0
Plant response rating, Crabgrass [17, 35]: 0
Plant response rating, Foxtail, Giant [18, 34]: 0
Plant response rating, Foxtail, Giant [18, 35]: 0
Plant response rating, Lambsquarters [19, 34]: 0
Plant response rating, Lambsquarters [19, 35]: 0
Plant response rating, Morningglory [20, 34]: 0
Plant response rating, Morningglory [20, 35]: 0
Plant response rating, Pigweed [21, 34]: 0
Plant response rating, Rice (rice (Oryza saliva) [22]; [34]): 0
Plant response rating, Rice (rice (Oryza saliva) [22]; [35]): 0
Plant response rating, Velvetleaf [23, 34]: 0
Plant response rating, Velvetleaf [23, 35]: 0
Plant response rating, Barnyardgrass [24]: 100
Plant response rating, Ducksalad [25]: 80
Plant response rating, Rice (rice (Oryza saliva) [26]): 0
Plant response rating, Flatsedge [27]: 100
Barnyardgrass plant response rating ([28]; Rate 250 g/ha): 100
Barnyardgrass plant response rating ([28]; Rate 500 g/ha): 100
Plant response rating, Barnyardgrass ([28]; Rate 62 g/ha): 0
Plant response rating, Barnyardgrass ([28]; Rate 125 g/ha): 50
Ducksalad plant response rating ([29]; Rate 250 g/ha): 50
Ducksalad plant response rating ([29]; Rate 500 g/ha): 50
Plant response rating, Ducksalad ([29]; Rate 62 g/ha): 0
Plant response rating, Ducksalad ([29]; Rate 125 g/ha): 40
Rice plant response rating (rice (Oryza saliva) [30]; Rate 250 g/ha): 0
Rice plant response rating (rice (Oryza saliva) [30]; Rate 500 g/ha): 0
Plant response rating, Rice (rice (Oryza saliva) [30]; Rate 62 g/ha): 0
Plant response rating, Rice (rice (Oryza saliva) [30]; Rate 125 g/ha): 0
Flatsedge plant response rating ([31]; Rate 250 g/ha): 90
Flatsedge plant response rating ([31]; Rate 500 g/ha): 100
Plant response rating, Flatsedge ([31]; Rate 62 g/ha): 40
Plant response rating, Flatsedge ([31]; Rate 125 g/ha): 90
